Experimental data published in patent US11059827B2, “Compounds and compositions useful for treating disorders related to NTRK” (Blueprint Medicines Corporation, priority 2015, dated 2021).
pIC50: −log10 of the molar value.

Assays:
[1] = system: KM12 wild type colon carcinoma cell line harboring the TPM3-NTRK1 fusion protein; experiment: NTRK wild type cellular assay (KM12, CellTiter-Glo); assay type: cell-based; details: KM12 wild type cells, 72 hr
Procedure: (§1) NTRK Wild Type and G595R Mutant Cellular Assays Protocol
(§2) KM12 wild type colon carcinoma cell line harboring the TPM3-NTRK1 fusion protein was obtained from the National Cancer Institute (NCI). This line has been previously shown to be dependent upon the NTRK activity derived from the NTRK fusion protein for growth and survival. […] Cells were first plated in 384-well plates at 1000 cells/well in complete media (10% FBS and 1% pen/strep) and incubated overnight at 37° C. Cells were then dosed with test articles at varying concentrations using the Bravo liquid handling system. Concentrations ranged from 25 uM down to […] (4-fold dilutions, 10 concentrations total). Each compound was run in duplicate per plate. DMSO and staurosporine (25 uM) were included on each plate as negative and positive controls for growth inhibition. 72 hr after dosing, assay plates were developed using CellTiter-Glo (Promega) and resultant luminescence was read on the Envision plate reader. IC50 determinations were calculated using a 4-parameter curve fitting algorithm

[2] = system: KM12 Cliff (G595R) cell line; experiment: NTRK G595R mutant cellular assay (KM12 Cliff, CellTiter-Glo); assay type: cell-based; details: KM12 Cliff (G595R) cells, 72 hr
Procedure: as §1, §2

## N#Cc1cnn2cc(F)c(N3C[C@@H](F)C[C@@H]3c3cc(F)cc(C(N)=O)c3)nc12 [Compound 15]
[1]
  pIC50: 7.00 to 8.00
[2]
  pIC50: 7.00 to 8.00
